These are literature values, as cited in patent US20240390277A1, “LIQUID FORMULATIONS OF TRAZODONE” (Rubicon Research Private Limited, priority 2023, published 2024).

For the data set the following is noted: humans.

As to `O=c1n(CCCN2CCN(c3cccc(Cl)c3)CC2)nc2ccccn12` [Trazodone], the Volume of distribution is recorded as 1.2 L/kg.
